Results from article PMC6941952, “A homogeneous bioluminescent immunoassay to probe cellular signaling pathway regulation” (Communications Biology, 2020).
“And” between values parts separate entries of the source, which are not always exact repeats. Equal entries are not always repeated.

Legend:
total IκBα = test: NanoBiT cell-based immunoassay, total IκBα in human breast tumor epithelial cells; conditions: Breast Tumor Cells; for Total IkB Average: background subtracted; for Total IkB Raw data / Total IkB Subtract reagent background: listed as TNF
Method: (§1) All cell lines used are from ATCC. […] Human Primary Mammary Epithelial Cells (#H-6035), Human Breast Tumor Epithelial Cells (#HC-6035), Complete Human Epithelial Cell Medium (#H6621), and Gelatin-Based Coating Solution (#H6950) were purchased from Cell Biologics. The cells were cultured according to the manufacturer’s procedure. All cells were grown at 37 °C in a 5% CO2 humidified incubator and passaged before reaching 80% cell confluency. Prior to each experiment, cells were counted by combining 30 µl of cell suspension with 30 µl of trypan blue. After gentle pipetting up and down to mix the cells and the dye, the cell number was determined using Bio-Rad TC 20 cell counter.
(§2) Prior to NanoBiT Cell-Based Immunoassay, 50,000 cells were seeded in 160 µl of complete growth media per well of a 96-well plate and incubated overnight. The cells were checked under microscope and it was determined that 50,000 cells per well in 96-well plate is under 90% confluency for all cells tested. If necessary, the cell culture media were replaced with serum-free media after the cells were stably adherent on the plate and incubated overnight. To treat cells with activators or inhibitors, medium was changed to 30 µl of medium containing inhibitors. If activation of a specific pathway is needed, the cells were stimulated with 10 µl of medium containing activators. To lyse the cells, 10 µl of lysis buffer containing 0.1% digitonin diluted in 1X immunoassay buffer with protease and phosphatase inhibitors was added and the plates were mixed vigorously for 20 min. Then, 50 µl of an antibody mix containing two primary antibodies against the target protein and NanoBiT detecting antibodies (0.3 µl each per well), diluted in 1X immunoassay buffer was added to the lysates. The plates were incubated at 23 °C for 90 min, followed by the addition of 25 µl of Nano-Glo® reagent consisting of Nano-Glo® Luciferase Assay Substrate mixed with 1X immunoassay buffer. Luminescence was measured using a plate-reading luminometer.
(§3) Single dose or dose response inhibitor treatments were performed prior to activation of the pathways as follows. For IκBα, the cells were treated in 30 µl medium with IKK16 or MG132 for 60 min before the addition of 10 µl of DMEM containing appropriate concentration of TNFα. To measure phosphorylation of AKT or STAT3, the corresponding NanoBiT immunoassays were developed with MCF-7 or A431 cells, respectively, according the same scheme used to develop the IκBα assay using the primary antibodies for AKT and STAT3 described in the reagents section. For the AKT assay, MCF-7 cells were incubated overnight in phenol-red free DMEM medium (Gibco #21063-029) without serum. Treatment with LY294002 was performed in 30 µl medium and cells were incubated for 60 min before the addition of 1 µM Insulin. To measure STAT3 phosphorylation, A431 cells were incubated overnight in DMEM medium without serum. […] After addition of the stimulators, the cells were incubated for additional times as follows. IκBα phosphorylation and degradation analyses required both time courses and single time points as described in figures. […] The NanoBiT immunoassay protocol was followed as described above.
(§4) All 96-well assay plates were read using a GloMax® 96 Microplate Luminometer from Promega. The instrument was set to 0.5 s integration time. In order to obtain net change of signal, the reagent background values (signal from the well containing all reagent except primary antibodies) were subtracted from the sample values. To plot and analyze the data, Microsoft Excel and GraphPad Prism® Software were used. IC50 values were determined by using a nonlinear regression fit to a sigmoidal dose response (variable slope).

phospho-IκBα (Ser32) = test: NanoBiT cell-based immunoassay, phosphorylated IκBα in human breast tumor epithelial cells; conditions: for P-IkB Average: background subtracted; for P-IkB Raw data / P-IkB Subtract reagent background: listed as TNF
Method: as §1, §2, §3, §4

NF-κB p65 Phospho-Ser536 = test: NanoBiT cell-based immunoassay, phosphorylated p65 in MCF-7 cells; design: species or system human; conditions: substance alone
Method: as §2, §3, §4

total NF-κB p65 = test: NanoBiT cell-based immunoassay, total p65 in MCF-7 cells; design: species or system human
Method: as §2, §3, §4

[1] = single replicates, listed as TNF
[2] = substance alone, single replicates, listed as TNF

## TNFα
Total IκBα; TNF 2 min
  Total IkB Average: 21090
  Total IkB Raw data: 27000 and 28670 and 28950
  Total IkB Subtract reagent background: 21553 and 21833 and 19883
Total IκBα; TNF 4 min
  Total IkB Average: 18310
  Total IkB Raw data: 25000 and 25490 and 25790
  Total IkB Subtract reagent background: 18373 and 18673 and 17883
Total IκBα; TNF 6 min
  Total IkB Average: 13990
  Total IkB Raw data: 22120 and 20820 and 20380
  Total IkB Subtract reagent background: 13703 and 13263 and 15003
Total IκBα; TNF 8 min
  Total IkB Average: 8950
  Total IkB Raw data: 16890 and 15660 and 15650
  Total IkB Subtract reagent background: 8543 and 8533 and 9773
Total IκBα; TNF 10 min
  Total IkB Average: 6003
  Total IkB Raw data: 13590 and 12910 and 12860
  Total IkB Subtract reagent background: 5793 and 5743 and 6473
Total IκBα; TNF 12 min
  Total IkB Average: 3767
  Total IkB Raw data: 11390 and 10770 and 10490
  Total IkB Subtract reagent background: 3653 and 3373 and 4273
Total IκBα; TNF 15 min
  Total IkB Average: 2118
  Total IkB Raw data: 9632 and 9015 and 9057
  Total IkB Subtract reagent background: 1898 and 1940 and 2515
Total IκBα; TNF 30 min
  Total IkB Average: 1696
  Total IkB Raw data: 8893 and 8691 and 8853
  Total IkB Subtract reagent background: 1574 and 1736 and 1776
Total IκBα; TNF 45 min
  Total IkB Average: 4853
  Total IkB Raw data: 11970 and 11880 and 12060
  Total IkB Subtract reagent background: 4763 and 4943 and 4853
Total IκBα; TNF 60 min
  Total IkB Average: 8867
  Total IkB Raw data: 15500 and 15850 and 16600
  Total IkB Subtract reagent background: 8733 and 9483 and 8383
phospho-IκBα (Ser32); TNF 2 min
  P-IkB Average: 10421
  P-IkB Raw data: 19130 and 19610 and 19580
  P-IkB Subtract reagent background: 10591 and 10561 and 10111
phospho-IκBα (Ser32); TNF 4 min
  P-IkB Average: 13121
  P-IkB Raw data: 21660 and 22370 and 22390
  P-IkB Subtract reagent background: 13351 and 13371 and 12641
phospho-IκBα (Ser32); TNF 6 min
  P-IkB Average: 21828
  P-IkB Raw data: 29170 and 32480 and 30890
  P-IkB Subtract reagent background: 23461 and 21871 and 20151
phospho-IκBα (Ser32); TNF 8 min
  P-IkB Average: 28528
  P-IkB Raw data: 35450 and 39050 and 38140
  P-IkB Subtract reagent background: 30031 and 29121 and 26431
phospho-IκBα (Ser32); TNF 10 min
  P-IkB Average: 34158
  P-IkB Raw data: 41810 and 44090 and 43630
  P-IkB Subtract reagent background: 35071 and 34611 and 32791
phospho-IκBα (Ser32); TNF 12 min
  P-IkB Average: 36728
  P-IkB Raw data: 43840 and 47190 and 46210
  P-IkB Subtract reagent background: 38171 and 37191 and 34821
phospho-IκBα (Ser32); TNF 15 min
  P-IkB Average: 37461
  P-IkB Raw data: 43590 and 48210 and 47640
  P-IkB Subtract reagent background: 39191 and 38621 and 34571
phospho-IκBα (Ser32); TNF 30 min
  P-IkB Average: 32864
  P-IkB Raw data: 39720 and 43050 and 42880
  P-IkB Subtract reagent background: 34031 and 33861 and 30701
phospho-IκBα (Ser32); TNF 45 min
  P-IkB Average: 30164
  P-IkB Raw data: 36730 and 40420 and 40400
  P-IkB Subtract reagent background: 31401 and 31381 and 27711
phospho-IκBα (Ser32); TNF 60 min
  P-IkB Average: 35274
  P-IkB Raw data: 41100 and 46170 and 45610
  P-IkB Subtract reagent background: 37151 and 36591 and 32081
NF-κB p65 Phospho-Ser536; background subtracted, average of replicates
  P-p65, Average: 154463
NF-κB p65 Phospho-Ser536; [1]
  P-p65, Raw data: 167400 and 177100 and 183300
  P-p65, Subtract reagent background: 145930 and 155630 and 161830
Total NF-κB p65; MCF-7 cells, TNFα 50 ng per ml 10 min, IKK16 10 µM 1 h
  level of p65: not affected
Total NF-κB p65; substance alone, background subtracted, average of replicates
  Total p65, Average: 887990
Total NF-κB p65; [2]
  Total p65, Raw data: 913100 and 869100 and 947500
  Total p65, Subtract reagent background: 925590 and 891190 and 847190
